The values that follow are results of earlier work, collected in US7282225B1, “Composition and methods for improving retinal health” (Occular Technologies, Inc., priority 2006, dated 2007).

Read-outs that look alike come from different tables or passages of the source.

Data set [1] relates to animals.
For data set [2], the system named is animals. The following applies: animal study, alpha-lipoic acid supplements.
In data set [3] the test system is AMD. The following applies: diet of 6 mg per day.
A further data set concerns macular degeneration. To be noted: dietary or supplement intake, case-control study.
Data set [4] has as its system restenosis after angioplasty. The following applies: 500 mg/day.
A further data set concerns monocytes. The following applies: 2 g/day.
The subject of data set [5] is patients with atherosclerosis. To be noted: 2 g/day.
The next data set deals with asthma. The following applies: 1-2 g/day.
In a further data set the test system is bladder cancer. The following applies: 500 mg daily for 10 years or more.
A further data set relates to heart disease. To be noted: more than 700 mg/day versus 60 mg/day or less.
In data set [6] the test system is colon cancer. The following applies: 3 g/day.
For data set [7] the following is noted: healthy, young men.
The next data set has as its system people. To be noted: more than 750 mg/day.
Data set [8] deals with colon cancer. The following applies: intake of more than 157 mg/day.
For data set [9], the system named is age-related macular degeneration (AMD). The following applies: participants at high risk (intermediate AMD, or advanced AMD in one eye only), daily oral tablets.
In data set [10] the test system is AMD.

Take `O=C(O)CCCCC1CCSS1` (stereo not drawn) [alpha-lipoic acid, Alpha-Lipoic Acid]: the “toxic side effects associated with cisplatin and cyclophosphamide” value in the data set on animals [1] was “protected against toxic side effects”. Besides, in the data set on rats, the cholesterol levels entry is on record as “improved cholesterol levels” and the thyroid hormone function entry is “altered thyroid hormone function”. Further, in the data set on animals [2], the “side effects associated with amikacin and gentamicin” value was “reduced side effects, particularly toxicity to the ear”.

Regarding `CC1=C[C@H](O)CC(C)(C)[C@H]1/C=C/C(C)=C/C=C/C(C)=C/C=C/C=C(C)/C=C/C=C(C)/C=C/C1=C(C)C[C@@H](O)CC1(C)C` [lutein, Lutein], the “lower prevalence of AMD” value in the data set on AMD [3] is listed as 43%. Moreover, the “association of intake with risk of macular degeneration” value (shortened to “association of intake”) with macular degeneration is recorded as “most strongly associated with a reduced risk”.

`CC1=C(/C=C/C(C)=C/C=C/C(C)=C/CO)C(C)(C)CCC1` [retinol, Retinol]: the “association of intake” value in the data set with macular degeneration is listed as “no effect”.

As for `O=C1O[C@H]([C@@H](O)CO)C(O)=C1O` [vitamin C, ascorbic acid], the “restenosis (reclosing of opened arteries) after angioplasty” value in [4] is recorded as “significantly reduced”. Besides, the “adhesion of monocytes to the lining of blood vessels” value with monocytes is given as “reduce adhesion of monocytes”. Also, in data set [5], the vasomotor dysfunction result is listed as “effectively reverses”. Besides, the asthma symptoms entry in the data set with asthma is “reduce asthma symptoms significantly”. Also, the open angle glaucoma entry in the data set on cataracts and glaucoma (large doses) was “can be reversed”. In the data set on cataracts and glaucoma (supplementation), the “risk of cataracts and glaucoma” value was “significantly lower”. Further, the “reduction of risk of developing bladder cancer” value in the data set on bladder cancer is 60%. Further, the “lower risk of dying from heart disease” value with heart disease is on record as 62%. Moreover, the “polyp growth in colon cancer” value with colon cancer [6] is on record as “effectively prevent further polyp growth”. Besides, in data set [7], the “minimum intake required to completely saturate the blood plasma with vitamin C” value is listed as ≥ 1000 mg/day. Further, the “reduction of risk of dying prematurely” value in the data set with people is 60%. Moreover, the “association of intake” value in the data set on macular degeneration is “little effect”. In addition, the “reduction of risk of developing colon cancer” value with colon cancer [8] was 50%.

`Cc1c(C)c2c(c(C)c1O)CC[C@@](C)(CCC[C@H](C)CCC[C@H](C)CCCC(C)C)O2` [vitamin E, alpha-tocopherol]: the “association of intake” value in the data set on macular degeneration was “negative effects”.

Consider `CC1=C(/C=C/C(C)=C/C=C/C(C)=C/C=C/C=C(C)/C=C/C=C(C)/C=C/C2=C(C)C[C@@H](O)CC2(C)C)C(C)(C)C[C@H](O)C1` [zeaxanthin, Zeaxanthin], for which the “association of intake” value in the data set with macular degeneration was “most strongly associated with a reduced risk”.

In the case of `[O-2].[Zn+2]` [zinc alone], the “Reduced risk of developing advanced AMD” value in [9] is “about 21%”; in data set [9] (listed as Zinc Alone) it was “AMD by about 21%”. Also, the “Reduced risk of vision loss” value in [9] was “about 11%”; in [9] (listed as Zinc Alone), “loss by about 11%”.

On to `[Zn]` [zinc], for which the accumulation of drusen entry in the data set on AMD [10] (zinc group) is “less accumulation of drusen”. The “treatment of AMD” value with AMD [10] (zinc supplements) is given as “effective”.
